The values that follow come from patent publication US20090099167A1, “Organic compounds” (Novartis Institutes for Biomedical Research, priority 2004, published 2009).

This experiment addresses T1, human EphB4 receptor (Homo sapiens, UniProt P54760).
T1 construct: made in house; host or cells: Sf9 or Sf21 (baculovirus)
T1 sequence (P54760 566-987): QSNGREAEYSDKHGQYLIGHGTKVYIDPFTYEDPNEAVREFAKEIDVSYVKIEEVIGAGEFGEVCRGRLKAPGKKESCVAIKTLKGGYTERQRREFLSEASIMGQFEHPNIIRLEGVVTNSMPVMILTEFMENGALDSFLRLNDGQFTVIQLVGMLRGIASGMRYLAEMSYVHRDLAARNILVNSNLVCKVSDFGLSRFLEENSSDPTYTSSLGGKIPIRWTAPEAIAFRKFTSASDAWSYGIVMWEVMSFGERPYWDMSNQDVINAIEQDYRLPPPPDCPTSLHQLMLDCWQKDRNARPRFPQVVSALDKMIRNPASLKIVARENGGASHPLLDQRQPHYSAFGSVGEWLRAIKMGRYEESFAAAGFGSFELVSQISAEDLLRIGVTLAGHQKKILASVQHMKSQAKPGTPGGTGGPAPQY
Put plainly: EphB4 kinase assay, GST-EphB, 33P incorporation into poly(Glu,Tyr). The class given is biochemical. Particulars: Table 5; read-out: EphB4, IC50 class. An excerpt: EphB4: Production and measure of enzymatic activity: Generation of Bac-to-Bac™ (Initrogen Life Technologies, Basel, Switzerland) GST-fusion expression vectors: Entire cytoplasmatic coding regions of the EphB-class are amplified by PCR from cDNA libraries derived from human placenta or brain, respectively. Recombinant baculovirus are generated that express the amino acid region 566-987 of the human EphB4 receptor (SwissProt Database, Accession No. P54760). GST sequence is cloned into pFastBac1® vector (Invitrogen Life Technologies, Basel, Switzerland) and PCR amplified. cDNAs encoding EphB4-receptor domains, respectively, are cloned in frame 3′prime to the GST sequence into this modified FastBac1 vector to generate pBac-to-Bac™ donor vectors. Single colonies arising from the transformation are inoculated to give overnight cultures for small scale plasmid preparation. […] By automated sequencing the inserts and approximately 50 bp of the flanking vector sequences are confirmed on both strands. Production of viruses: Viruses for each of the kinases are made according to the protocol supplied by GIBCO if not stated otherwise. In brief, transfer vectors containing the kinase domains are transfected into the DH10Bac cell line (GIBCO) and plated on selective agar plates. Colonies without insertion of the fusion sequence into the viral genome (carried by the bacteria) are blue. Single white colonies are picked and viral DNA (bacmid) isolated from the bacteria by standard plasmid purification procedures. Sf9 cells or Sf21 cells are then transfected in 25 cm2 flasks with the viral DNA using Cellfectin reagent according to the protocol. Purification of GST-tagged kinases: The centrifuged cell lysate is loaded onto a 2 mL glutathione-sepharose column (Pharmacia) and washed three times with 10 mL of 25 mM Tris-HCl, pH 7.5, 2 mM EDTA, 1 mM DTT, 200 mM NaCl. The GST-tagged proteins are then eluted by 10 applications (1 mL each) of 25 mM Tris-HCl, pH 7.5, 10 mM reduced-glutathione, 100 mM NaCl, 1 mM DTT, 10% Glycerol and stored at −70° C. Protein kinase assays: The activities of protein kinases are assayed in the presence or absence of inhibitors, by measuring the incorporation of 33P from [γ33P]ATP into a polymer of glutamic acid and tyrosine (poly(Glu,Tyr)) as a substrate. The kinase assays with purified GST-EphB (30 ng) are carried out for 15-30 min at ambient temperature in a final volume of 30 μL containing 20 mM Tris.HCl, pH 7.5, 10 mM MgCl2, 3-50 mM MnCl2, 0.01 mM Na3VO4, 1% DMSO, 1 mM DTT, 3 μg/mL poly(Glu,Tyr) 4:1 (Sigma; St. Louis, Mo., USA) and 2.0-3.0 μM ATP (γ-[33P]-ATP 0.1 μCi). The assay is terminated by the addition of 20 μL of 125 mM EDTA. Subsequently, 40 μl of the reaction mixture are transferred onto Immobilon-PVDF membrane (Millipore, Bedford, Mass., USA) previously soaked for 5 min with methanol, rinsed with water, then soaked for 5 min with 0.5% H3PO4 and mounted on vacuum manifold with disconnected vacuum source. After spotting all samples, vacuum is connected and each well rinsed with 200 μl 0.5% H3PO4. Membranes are removed and washed 4× on a shaker with 1.0% H3PO4, once with ethanol. Membranes are counted after drying at ambient temperature, mounting in Packard TopCount96-well frame, and addition of 10 μL/well of Microscint™ (Packard). IC50 values are calculated by linear regression analysis of the percentage inhibition of each compound in duplicate, at four concentrations (usually 0.01, 0.1, 1 and 10 μM). One unit of protein kinase activity is defined as 1 nmole of 33P ATP transferred from [γ33P] ATP to the substrate protein per minute per mg of protein at 37° C. Compounds of formula I show EphB4 inhibition down to 10 nM, preferably IC50 values between 0.01-1.0 μM.

Consider `COc1ccc(-c2cnn3c(N)c(-c4cccc(Cl)c4)c(C)nc23)cc1OC` [Example 93, 6-(3-Chloro-phenyl)-3-(3,4-dimethoxy-phenyl)-5-methyl-pyrazolo[1,5-a]pyrimidin-7-ylamine], for which the IC50 is less than 1000 nM.
Under `COc1ccc(-c2cnn3c(N)c(-c4ccc(F)c(Cl)c4)c(C)nc23)cc1OC` [Example 94, 6-(3-Chloro-4-fluoro-phenyl)-3-(3,4-dimethoxy-phenyl)-5-methyl-pyrazolo[1,5-a]pyrimidin-7-ylamine] stands less than 1000 nM.
For `COc1ccc(-c2cnn3c(N)c(-c4ccc(F)c(Cl)c4)c(C)nc23)cc1` [Example 95, 6-(3-Chloro-4-fluoro-phenyl)-3-(4-methoxy-phenyl)-5-methyl-pyrazolo[1,5-a]pyrimidin-7-ylamine], the IC50 was less than 1000 nM.
For the compound `COc1ccc(-c2cnn3c(N)c(-c4ccc(F)cc4)c(C)nc23)cc1` [Example 96, 6-(4-Fluoro-phenyl)-3-(4-methoxy-phenyl)-5-methyl-pyrazolo[1,5-a]pyrimidin-7-ylamine], the IC50 is less than 1000 nM.
Take `Cc1nc2c(-c3cccc(N4CCN(CCO)CC4)c3)cnn2c(N)c1-c1ccc(F)cc1` [Example 97, 2-(4-{3-[7-Amino-6-(4-fluoro-phenyl)-5-methyl-pyrazolo[1,5-a]pyrimidin-3-yl]-phenyl}-piperazin-1-yl)-ethanol]: the IC50 is less than 1000 nM.
`Cc1nc2c(-c3cccc(N4CCN(C)CC4)c3)cnn2c(N)c1-c1ccc(F)c(F)c1` [Example 98, 6-(3,4-Difluoro-phenyl)-5-methyl-3-[3-(4-methyl-piperazin-1-yl)-phenyl]-pyrazolo[1,5-a]pyrimidin-7-ylamine]: the IC50 was less than 1000 nM.
As for `COc1ccc(-c2cnn3c(N)c(-c4ccc(F)c(F)c4)c(C)nc23)cc1OC` [Example 99, 6-(3,4-Difluoro-phenyl)-3-(3,4-dimethoxy-phenyl)-5-methyl-pyrazolo[1,5-a]pyrimidin-7-ylamine], the figure is less than 1000 nM.
As for `Cc1nc2c(-c3cccc(N4CCN(CCO)CC4)c3)cnn2c(N)c1-c1ccc(F)c(Cl)c1` [Example 100, 2-(4-{3-[7-Amino-6-(3-chloro-4-fluoro-phenyl)-5-methyl-pyrazolo[1,5-a]pyrimidin-3-yl]-phenyl}-piperazin-1-yl)-ethanol], the IC50 is less than 1000 nM.
Regarding `Cc1nc2c(-c3cccc(N4CCN(CCO)CC4)c3)cnn2c(N)c1-c1ccc(F)c(F)c1` [Example 101, 2-(4-{3-[7-Amino-6-(3,4-difluoro-phenyl)-5-methyl-pyrazolo[1,5-a]pyrimidin-3-yl]-phenyl}-piperazin-1-yl)-ethanol], the IC50 is less than 1000 nM.
As for `Cc1nc2c(-c3cccc(N4CCC(N5CCCC5)CC4)c3)cnn2c(N)c1-c1cccc(Cl)c1` [Example 102, 6-(3-Chloro-phenyl)-5-methyl-3-[3-(4-pyrrolidin-1-yl-piperidin-1-yl)-phenyl]-pyrazolo[1,5-a]pyrimidin-7-ylamine], the figure is less than 1000 nM; as for `Cc1nc2c(-c3cccc(N4CCC(N5CCCC5)CC4)c3)cnn2c(N)c1-c1ccc(F)cc1` [Example 103, 6-(4-Fluoro-phenyl)-5-methyl-3-[3-(4-pyrrolidin-1-yl-piperidin-1-yl)-phenyl]-pyrazolo[1,5-a]pyrimidin-7-ylamine], less than 1000 nM.
For the compound `Cc1nc2c(-c3cccc(N4CC[N+](C)([O-])CC4)c3)cnn2c(N)c1-c1ccc(F)cc1` [Example 106, 6-(4-Fluoro-phenyl)-5-methyl-3-[3-(4-methyl-4-oxy-piperazin-1-yl)-phenyl]-pyrazolo[1,5-a]pyrimidin-7-ylamine], the IC50 was less than 1000 nM.
For the compound `Cc1nc2c(-c3cccc([N+]4([O-])CC[N+](C)([O-])CC4)c3)cnn2c(N)c1-c1ccc(F)cc1` (stereo not shown) [Example 107, 6-(4-Fluoro-phenyl)-5-methyl-3-[3-(4-methyl-1,4-dioxy-piperazin-1-yl)-phenyl]-pyrazolo[1,5-a]pyrimidin-7-ylamine], the IC50 was less than 1000 nM.
